Test results: ChEMBL document CHEMBL5113452, “Synthesis and biological evaluation of hybrids from optically active ring-opened 3-N-butylphthalide derivatives and 4-fluro-edaravone as potential anti-acute ischemic stroke agents” (Bioorg Med Chem, 2022)
Activity calls are given as the source filed them. The rule behind the calls is not given here.

What was measured:
Rattus norvegicus [1] = assay: Neuroprotective activity against transient middle cerebral artery occlusion induced ischemia stroke Sprague-Dawley rat model assessed as increase in neuro-fucntional score at 10 mg/kg, iv and measured after 24 hrs by longa's method; assay type: functional, organism-based
[2] = Toxicity in transient middle cerebral artery occlusion induced ischemia stroke Sprague-Dawley rat model assessed as change in body weight at 10 mg/kg, iv and measured after 24 hrs; assay type: organism-based; details: in vivo
Rattus norvegicus [3] = assay: Neuroprotective activity against transient middle cerebral artery occlusion induced cerebral infraction Sprague-Dawley rat model assessed as decrease in cerebral infraction volume at 10 mg/kg, iv and measured after 24 hrs by TTC staining based assay; assay type: functional; parameters: scale not given: the % may be the effect or the level left
Rattus norvegicus [4] = assay: Neuroprotective activity against transient middle cerebral artery occlusion induced cerebral infraction Sprague-Dawley rat model assessed as decrease in brain edema at 10 mg/kg, iv and measured after 24 hrs; assay type: functional; parameters: scale not given: the % may be the effect or the level left
[5] = Metabolic stability in rat plasma assessed as half life at 200 uM and measured upto 24 hrs by HPLC analysis; assay type: ADME, cell-free
[6] = Metabolic stability in rat liver microsomes assessed as half life at 20 mM and measured upto 120 mins by HPLC analysis; assay type: ADME, Microsome
[7] = Prodrug conversion in Sprague-Dawley rat plasma assessed as elimination rate constant of metabolite S-NBP at 10 mg/kg, iv and measured upto 24 hrs by LC-MS/MS analysis; assay type: ADME, organism-based; details: in vivo
[8] = Prodrug conversion in Sprague-Dawley rat plasma assessed as half life of metabolite S-NBP at 10 mg/kg, iv and measured upto 24 hrs by LC-MS/MS analysis; assay type: ADME, organism-based; details: in vivo
[9] = Prodrug conversion in Sprague-Dawley rat plasma assessed as Cmax of metabolite S-NBP at 10 mg/kg, iv and measured upto 24 hrs by LC-MS/MS analysis; assay type: ADME, organism-based; parameters: time < 24 hrs, dose 10 mg/kg, route iv; details: in vivo
[10] = Prodrug conversion in Sprague-Dawley rat plasma assessed as C0 of metabolite S-NBP at 10 mg/kg, iv and measured upto 24 hrs by LC-MS/MS analysis; assay type: ADME, organism-based; details: in vivo
[11] = Prodrug conversion in Sprague-Dawley rat plasma assessed as AUC (0-t) of metabolite S-NBP at 10 mg/kg, iv and measured upto 24 hrs by LC-MS/MS analysis; assay type: ADME, organism-based; parameters: time < 24 hrs, dose 10 mg/kg, route iv; details: in vivo
[12] = Prodrug conversion in Sprague-Dawley rat plasma assessed as AUC (0-infinity) of metabolite S-NBP at 10 mg/kg, iv and measured upto 24 hrs by LC-MS/MS analysis; assay type: ADME, organism-based; parameters: dose 10 mg/kg, time < 24 hrs, route iv; details: in vivo
[13] = Prodrug conversion in Sprague-Dawley rat plasma assessed as AUMC (0-t) of metabolite S-NBP at 10 mg/kg, iv and measured upto 24 hrs by LC-MS/MS analysis; assay type: ADME, organism-based; details: in vivo
[14] = Prodrug conversion in Sprague-Dawley rat plasma assessed as AUMC (0-infinity) of metabolite S-NBP at 10 mg/kg, iv and measured upto 24 hrs by LC-MS/MS analysis; assay type: ADME, organism-based; details: in vivo
[15] = Prodrug conversion in Sprague-Dawley rat plasma assessed as MRT of metabolite S-NBP at 10 mg/kg, iv and measured upto 24 hrs by LC-MS/MS analysis; assay type: ADME, organism-based; details: in vivo
[16] = Prodrug conversion in Sprague-Dawley rat plasma assessed as volume of distribution at steady state of metabolite S-NBP at 10 mg/kg, iv and measured upto 24 hrs by LC-MS/MS analysis; assay type: ADME, organism-based; details: in vivo
[17] = Prodrug conversion in Sprague-Dawley rat plasma assessed as elimination rate constant of metabolite 4-F-Eda at 10 mg/kg, iv and measured upto 24 hrs by LC-MS/MS analysis; assay type: ADME, organism-based; details: in vivo
[18] = Prodrug conversion in Sprague-Dawley rat plasma assessed as half life of metabolite 4-F-Eda at 10 mg/kg, iv and measured upto 24 hrs by LC-MS/MS analysis; assay type: ADME, organism-based; details: in vivo
[19] = Prodrug conversion in Sprague-Dawley rat plasma assessed as Cmax of metabolite 4-F-Eda at 10 mg/kg, iv and measured upto 24 hrs by LC-MS/MS analysis; assay type: ADME, organism-based; parameters: time < 24 hrs, dose 10 mg/kg, route iv; details: in vivo
[20] = Prodrug conversion in Sprague-Dawley rat plasma assessed as C0 of metabolite 4-F-Eda at 10 mg/kg, iv and measured upto 24 hrs by LC-MS/MS analysis; assay type: ADME, organism-based; details: in vivo
[21] = Prodrug conversion in Sprague-Dawley rat plasma assessed as AUC (0-t) of metabolite 4-F-Eda at 10 mg/kg, iv and measured upto 24 hrs by LC-MS/MS analysis; assay type: ADME, organism-based; parameters: dose 10 mg/kg, time < 24 hrs, route iv; details: in vivo
[22] = Prodrug conversion in Sprague-Dawley rat plasma assessed as AUC (0-infinity) of metabolite 4-F-Eda at 10 mg/kg, iv and measured upto 24 hrs by LC-MS/MS analysis; assay type: ADME, organism-based; parameters: dose 10 mg/kg, time < 24 hrs, route iv; details: in vivo
[23] = Prodrug conversion in Sprague-Dawley rat plasma assessed as AUMC (0-t) of metabolite 4-F-Eda at 10 mg/kg, iv and measured upto 24 hrs by LC-MS/MS analysis; assay type: ADME, organism-based; details: in vivo
[24] = Prodrug conversion in Sprague-Dawley rat plasma assessed as AUMC (0-infinity) of metabolite 4-F-Eda at 10 mg/kg, iv and measured upto 24 hrs by LC-MS/MS analysis; assay type: ADME, organism-based; details: in vivo
[25] = Prodrug conversion in Sprague-Dawley rat plasma assessed as MRT of metabolite 4-F-Eda at 10 mg/kg, iv and measured upto 24 hrs by LC-MS/MS analysis; assay type: ADME, organism-based; details: in vivo
[26] = Prodrug conversion in Sprague-Dawley rat plasma assessed as volume of distribution at steady state of metabolite 4-F-Eda at 10 mg/kg, iv and measured upto 24 hrs by LC-MS/MS analysis; assay type: ADME, organism-based; details: in vivo
[27] = Prodrug conversion in Sprague-Dawley rat plasma assessed as S-NBP metabolite formation at 10 mg/kg, iv and measured upto 24 hrs by LC-MS/MS analysis; assay type: ADME, organism-based; details: in vivo
[28] = Prodrug conversion in Sprague-Dawley rat plasma assessed as 4-F-Eda metabolite formation at 10 mg/kg, iv and measured upto 24 hrs by LC-MS/MS analysis; assay type: ADME, organism-based; details: in vivo

In the case of `CCCC[C@H](OC(C)=O)c1ccccc1C(=O)Oc1cc(C)nn1-c1ccc(F)cc1`, the Activity (Rattus norvegicus [1]) is reported as “Active”, the Activity [2] is reported as “Non-Toxic” and the Activity (Rattus norvegicus [3]) is reported as 77.85%. It also gave an Activity (Rattus norvegicus [4]) of 13.96%, a half-life at 200 µM [5] of 17 h and a half-life [6] of 0.833 h. The Kel [7] was 0.123 h⁻¹, the t1/2 [8] was 5.69 h and the Cmax [9] was 3242 ng/mL. The C0 [10] was 4653 ng/mL, the AUCt [11] was 2740 ng·h/mL and the AUC [12] was 2819 ng·h/mL. The AUMCt [13] was 9914 hr.hr.ng/ml, the AUMC [14] was 12474 hr.hr.ng/ml and the MRT [15] was 4.45 h. The Vdss [16] was 16.1 L/kg, the Kel [17] was 0.143 h⁻¹ and the t1/2 [18] was 5.11 h. For the same molecule, the Cmax [19] was 5569 ng/mL, the C0 [20] was 8328 ng/mL and the AUCt [21] was 2958 ng·h/mL. For the same molecule, the AUC [22] was 2990 ng·h/mL, the AUMCt [23] was 4095 hr.hr.ng/ml and the AUMC [24] was 5109 hr.hr.ng/ml. The MRT [25] was 1.77 h, the Vdss [26] was 6.18 L/kg and the Drug metabolism [27] was “Metabolite_Detected”. For the same molecule, the Drug metabolism [28] was “Metabolite_Detected”.
